Data reported in ChEMBL document CHEMBL5465560, “Selectivity Literature for EUbOPEN Chemogenomic Library” (2024).
Values belong to the molecule of their own block, whether it stands above or below them.

Key:
[1] = molecular target: T1, Serine/threonine-protein kinase DCLK3 (Homo sapiens) (UniProt Q9C098); experiment: Selectivity interaction (KinomeScan (DiscoverX)) EUB0001079a DCLK3; conditions: at 1 µM
T1 sequence (whole entry): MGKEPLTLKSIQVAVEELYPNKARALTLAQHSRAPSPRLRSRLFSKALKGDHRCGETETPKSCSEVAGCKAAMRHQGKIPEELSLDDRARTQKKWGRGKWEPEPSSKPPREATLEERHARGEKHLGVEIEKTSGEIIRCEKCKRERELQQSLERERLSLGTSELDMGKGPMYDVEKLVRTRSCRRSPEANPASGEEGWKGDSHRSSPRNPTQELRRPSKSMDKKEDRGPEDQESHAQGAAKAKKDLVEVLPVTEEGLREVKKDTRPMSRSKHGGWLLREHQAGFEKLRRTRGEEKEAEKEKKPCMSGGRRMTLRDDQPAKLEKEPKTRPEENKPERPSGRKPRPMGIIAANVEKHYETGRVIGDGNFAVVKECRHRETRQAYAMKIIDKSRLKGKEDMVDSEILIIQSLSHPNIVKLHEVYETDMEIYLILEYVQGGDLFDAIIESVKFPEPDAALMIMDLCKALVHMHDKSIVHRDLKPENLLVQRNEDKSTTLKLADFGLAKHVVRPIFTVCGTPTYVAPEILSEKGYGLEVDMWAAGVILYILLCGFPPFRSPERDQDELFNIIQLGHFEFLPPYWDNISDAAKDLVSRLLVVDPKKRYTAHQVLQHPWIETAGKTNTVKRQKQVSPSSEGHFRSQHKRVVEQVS

[2] = molecular target: Dual specificity mitogen-activated protein kinase kinase 1 (Homo sapiens, UniProt Q02750); experiment: Selectivity interaction (KinomeScan (DiscoverX)) EUB0000618a MAP2K1; conditions: at 10 µM
Chain of Dual specificity mitogen-activated protein kinase kinase 1 (Q02750 whole entry): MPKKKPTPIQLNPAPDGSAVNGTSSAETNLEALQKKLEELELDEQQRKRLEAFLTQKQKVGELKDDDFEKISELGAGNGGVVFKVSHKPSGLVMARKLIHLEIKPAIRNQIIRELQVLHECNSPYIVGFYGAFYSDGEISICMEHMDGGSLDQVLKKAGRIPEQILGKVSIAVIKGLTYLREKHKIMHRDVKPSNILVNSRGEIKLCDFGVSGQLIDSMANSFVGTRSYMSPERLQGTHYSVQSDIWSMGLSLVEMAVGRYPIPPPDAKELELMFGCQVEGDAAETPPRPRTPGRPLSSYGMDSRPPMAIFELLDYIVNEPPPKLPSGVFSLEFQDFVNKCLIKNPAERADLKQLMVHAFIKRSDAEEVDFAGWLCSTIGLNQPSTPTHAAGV

[3] = molecular target: T2, Serine/threonine-protein kinase Nek9 (Homo sapiens) (UniProt Q8TD19); experiment: Selectivity interaction (Kinase panel (KiNativ target engagement assay in Jurkat cells)) EUB0001635a NEK9; type: cell-based; conditions: at 1 µM
T2 sequence (whole entry): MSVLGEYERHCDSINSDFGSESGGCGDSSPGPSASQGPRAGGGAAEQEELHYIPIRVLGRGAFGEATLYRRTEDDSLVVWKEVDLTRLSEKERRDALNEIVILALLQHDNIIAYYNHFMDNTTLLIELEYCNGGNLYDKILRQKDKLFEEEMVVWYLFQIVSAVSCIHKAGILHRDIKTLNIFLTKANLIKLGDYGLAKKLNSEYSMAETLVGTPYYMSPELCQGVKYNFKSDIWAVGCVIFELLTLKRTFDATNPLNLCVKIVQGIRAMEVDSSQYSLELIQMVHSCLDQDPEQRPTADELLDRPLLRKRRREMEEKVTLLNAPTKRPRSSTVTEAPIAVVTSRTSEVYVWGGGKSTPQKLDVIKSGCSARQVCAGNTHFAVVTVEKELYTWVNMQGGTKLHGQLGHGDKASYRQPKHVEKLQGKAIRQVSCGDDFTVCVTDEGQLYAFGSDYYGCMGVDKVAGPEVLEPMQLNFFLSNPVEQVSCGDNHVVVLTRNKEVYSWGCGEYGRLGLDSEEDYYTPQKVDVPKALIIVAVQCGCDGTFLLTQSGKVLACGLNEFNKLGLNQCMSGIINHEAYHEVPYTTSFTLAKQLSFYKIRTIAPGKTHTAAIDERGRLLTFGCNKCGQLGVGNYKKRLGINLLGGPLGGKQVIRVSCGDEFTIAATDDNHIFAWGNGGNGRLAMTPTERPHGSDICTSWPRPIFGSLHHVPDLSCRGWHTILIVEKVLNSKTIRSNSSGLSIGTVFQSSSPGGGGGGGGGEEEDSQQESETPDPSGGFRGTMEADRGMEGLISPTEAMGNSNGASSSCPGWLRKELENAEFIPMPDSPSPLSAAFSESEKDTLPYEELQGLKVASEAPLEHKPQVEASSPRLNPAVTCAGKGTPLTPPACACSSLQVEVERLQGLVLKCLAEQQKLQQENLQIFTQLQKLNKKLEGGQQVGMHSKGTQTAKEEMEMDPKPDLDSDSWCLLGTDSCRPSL

[4] = molecular target: Calcium/calmodulin-dependent protein kinase type 1 (Homo sapiens) (UniProt Q14012); experiment: Selectivity interaction (ActivX KiNativ screen (kinase selectivity in THP-1 cell lysates)) EUB0000639a CAMK1; type: subcellular; conditions: lysate, at 1 µM
Chain of Calcium/calmodulin-dependent protein kinase type 1 (Homo sapiens) (Q14012 whole entry, looked up): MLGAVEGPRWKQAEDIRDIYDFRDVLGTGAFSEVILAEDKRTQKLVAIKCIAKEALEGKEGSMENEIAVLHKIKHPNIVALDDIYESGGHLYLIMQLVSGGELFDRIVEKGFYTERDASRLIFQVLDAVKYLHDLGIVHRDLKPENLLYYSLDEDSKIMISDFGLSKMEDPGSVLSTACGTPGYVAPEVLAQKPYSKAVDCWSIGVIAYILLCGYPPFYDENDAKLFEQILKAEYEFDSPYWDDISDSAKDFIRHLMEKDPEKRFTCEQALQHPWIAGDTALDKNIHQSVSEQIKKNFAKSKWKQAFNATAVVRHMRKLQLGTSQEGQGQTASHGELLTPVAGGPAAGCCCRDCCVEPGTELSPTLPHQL

[5] = molecular target: Interleukin-1 receptor-associated kinase 1 (Homo sapiens) (UniProt P51617); experiment: Selectivity interaction (Adapta Assay) EUB0001632a IRAK1; conditions: at 10 µM
Chain of Interleukin-1 receptor-associated kinase 1 (Homo sapiens) (P51617 whole entry, looked up): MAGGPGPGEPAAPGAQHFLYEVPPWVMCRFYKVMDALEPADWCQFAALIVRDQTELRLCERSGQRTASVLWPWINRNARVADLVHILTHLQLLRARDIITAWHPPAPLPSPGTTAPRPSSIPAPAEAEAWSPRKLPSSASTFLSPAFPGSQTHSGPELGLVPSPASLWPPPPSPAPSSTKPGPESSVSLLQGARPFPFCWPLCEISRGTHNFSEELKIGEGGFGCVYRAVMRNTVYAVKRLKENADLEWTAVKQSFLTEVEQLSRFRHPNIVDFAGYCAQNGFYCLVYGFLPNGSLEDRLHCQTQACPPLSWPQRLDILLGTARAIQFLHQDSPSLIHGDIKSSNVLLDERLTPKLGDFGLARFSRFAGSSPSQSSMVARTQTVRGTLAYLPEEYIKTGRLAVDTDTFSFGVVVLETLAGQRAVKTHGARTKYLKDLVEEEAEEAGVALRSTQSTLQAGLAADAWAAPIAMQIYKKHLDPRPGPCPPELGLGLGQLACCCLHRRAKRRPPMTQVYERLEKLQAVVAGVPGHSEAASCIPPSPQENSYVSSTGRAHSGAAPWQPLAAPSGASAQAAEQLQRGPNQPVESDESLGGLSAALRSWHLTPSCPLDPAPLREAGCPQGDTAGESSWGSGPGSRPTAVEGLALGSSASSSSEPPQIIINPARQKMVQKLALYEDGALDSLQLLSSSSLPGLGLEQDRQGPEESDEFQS

[6] = molecular target: T3, Dual specificity tyrosine-phosphorylation-regulated kinase 2 (Homo sapiens) (UniProt Q92630); experiment: Selectivity interaction (LanthaScreen Eu Kinase Binding Assay) EUB0001632a DYRK2; conditions: at 10 µM
T3 sequence (whole entry): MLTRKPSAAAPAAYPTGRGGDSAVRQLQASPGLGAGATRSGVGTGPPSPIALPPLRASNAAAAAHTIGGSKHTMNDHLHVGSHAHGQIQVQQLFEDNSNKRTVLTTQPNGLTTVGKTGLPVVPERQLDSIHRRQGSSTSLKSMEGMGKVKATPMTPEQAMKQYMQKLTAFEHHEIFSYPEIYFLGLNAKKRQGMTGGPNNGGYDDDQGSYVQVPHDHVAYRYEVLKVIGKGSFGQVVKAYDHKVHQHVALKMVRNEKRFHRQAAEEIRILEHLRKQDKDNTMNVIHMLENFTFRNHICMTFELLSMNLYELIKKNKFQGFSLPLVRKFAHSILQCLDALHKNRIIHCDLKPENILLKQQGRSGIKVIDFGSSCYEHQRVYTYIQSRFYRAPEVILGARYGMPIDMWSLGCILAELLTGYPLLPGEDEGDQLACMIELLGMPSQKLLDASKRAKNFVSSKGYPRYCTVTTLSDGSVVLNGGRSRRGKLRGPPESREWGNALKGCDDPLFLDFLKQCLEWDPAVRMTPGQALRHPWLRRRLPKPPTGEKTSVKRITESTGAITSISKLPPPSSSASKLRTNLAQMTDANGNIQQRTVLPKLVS

Structure (SMILES): Nc1cnc(N2CCc3cc(S(=O)(=O)Nc4c(F)cc(Cl)cc4F)cc(N4CCCC4=O)c32)nc1 [TP-020n]
% of control [1]: 85%

Structure (SMILES): O[C@H]1CC[C@H](Nc2ncc3nc(Nc4c(F)cc(F)cc4F)n([C@H]4CCOC4)c3n2)CC1
% of control [2]: 100%

Structure (SMILES): C=CC(=O)Nc1ccc(C(=O)Nc2[nH]nc3c2CN(C(=O)N[C@H](CN(C)C)c2ccccc2)C3(C)C)cc1
% of engagement ([3]; Selectivity number of off-targets 0.0, Selectivity number of targets 233.0, Source Knowledge https://www.sciencedirect.com/science/article/pii/S2451945619300674?via%3Dihub): -1.8%
% of engagement [3]: -1.7%

% of inhibition [4]: -14.5%
Structure (SMILES): CC[C@@H]1[C@H](F)C(=O)N[C@@H]1COc1nccc2cc(C(N)=O)c(OC)cc12 [ZIMLOVISERTIB]

% of inhibition [5]: -6.48%
% of inhibition [6]: -265%
Structure (SMILES): Cn1cc(-n2cnc3c(NCc4nc5cc(Cl)c(Cl)cc5[nH]4)nc(N4CCOCC4)nc32)cn1
